Test results from the NIST ThermoML archive (doi:10.1016/j.jct.2007.09.004).
Numbers after ± are expanded uncertainties.

Key:
[1] = relative permittivity at zero frequency (dimensionless); xn = mol fraction of the nth substance listed; conditions: 101 kPa, Liquid, Parallel plate capacitor
[2] = xn = mol fraction of the nth substance listed; conditions: 101 kPa, Liquid
[3] = 101 kPa, Liquid
[4] = relative permittivity at zero frequency (dimensionless); conditions: 101 kPa, Liquid, Parallel plate capacitor

Compound: CCCOCCO [2-propoxyethanol] + OCCOCCOCCOCCO
- relative permittivity at zero frequency ([1]; 293.15 K, x1 = 0.05): 20.13 ± 0.04
- relative permittivity at zero frequency ([1]; 293.15 K, x1 = 0.1): 19.82 ± 0.04
- relative permittivity at zero frequency ([1]; 293.15 K, x1 = 0.2): 19.18 ± 0.04
- relative permittivity at zero frequency ([1]; 293.15 K, x1 = 0.3002): 18.49 ± 0.04
- relative permittivity at zero frequency ([1]; 293.15 K, x1 = 0.4001): 17.73 ± 0.04
- relative permittivity at zero frequency ([1]; 293.15 K, x1 = 0.5003): 16.88 ± 0.04
- relative permittivity at zero frequency ([1]; 293.15 K, x1 = 0.6): 15.95 ± 0.04
- relative permittivity at zero frequency ([1]; 293.15 K, x1 = 0.7002): 14.99 ± 0.04
- relative permittivity at zero frequency ([1]; 293.15 K, x1 = 0.7999): 14.01 ± 0.04
- relative permittivity at zero frequency ([1]; 293.15 K, x1 = 0.9): 12.96 ± 0.04
- relative permittivity at zero frequency ([1]; 293.15 K, x1 = 0.9501): 12.38 ± 0.04
- relative permittivity at zero frequency ([1]; 293.15 K, x1 = 1): 11.76 ± 0.04
- relative permittivity at zero frequency ([1]; 298.15 K, x1 = 0.05): 19.58 ± 0.04
- relative permittivity at zero frequency ([1]; 298.15 K, x1 = 0.1): 19.26 ± 0.04
- relative permittivity at zero frequency ([1]; 298.15 K, x1 = 0.2): 18.62 ± 0.04
- relative permittivity at zero frequency ([1]; 298.15 K, x1 = 0.3002): 17.95 ± 0.04
- relative permittivity at zero frequency ([1]; 298.15 K, x1 = 0.4001): 17.21 ± 0.04
- relative permittivity at zero frequency ([1]; 298.15 K, x1 = 0.5003): 16.4 ± 0.04
- relative permittivity at zero frequency ([1]; 298.15 K, x1 = 0.6): 15.53 ± 0.04
- relative permittivity at zero frequency ([1]; 298.15 K, x1 = 0.7002): 14.61 ± 0.04
- relative permittivity at zero frequency ([1]; 298.15 K, x1 = 0.7999): 13.64 ± 0.04
- relative permittivity at zero frequency ([1]; 298.15 K, x1 = 0.9): 12.62 ± 0.04
- relative permittivity at zero frequency ([1]; 298.15 K, x1 = 0.9501): 12.07 ± 0.04
- relative permittivity at zero frequency ([1]; 298.15 K, x1 = 1): 11.5 ± 0.04
- relative permittivity at zero frequency ([1]; 303.15 K, x1 = 0.05): 19.01 ± 0.04
- relative permittivity at zero frequency ([1]; 303.15 K, x1 = 0.1): 18.68 ± 0.04
- relative permittivity at zero frequency ([1]; 303.15 K, x1 = 0.2): 18.05 ± 0.04
- relative permittivity at zero frequency ([1]; 303.15 K, x1 = 0.3002): 17.39 ± 0.04
- relative permittivity at zero frequency ([1]; 303.15 K, x1 = 0.4001): 16.69 ± 0.04
- relative permittivity at zero frequency ([1]; 303.15 K, x1 = 0.5003): 15.91 ± 0.04
- relative permittivity at zero frequency ([1]; 303.15 K, x1 = 0.6): 15.07 ± 0.04
- relative permittivity at zero frequency ([1]; 303.15 K, x1 = 0.7002): 14.18 ± 0.04
- relative permittivity at zero frequency ([1]; 303.15 K, x1 = 0.7999): 13.24 ± 0.04
- relative permittivity at zero frequency ([1]; 303.15 K, x1 = 0.9): 12.26 ± 0.04
- relative permittivity at zero frequency ([1]; 303.15 K, x1 = 0.9501): 11.73 ± 0.04
- relative permittivity at zero frequency ([1]; 303.15 K, x1 = 1): 11.19 ± 0.04
- mass density ([2]; 293.15 K, x1 = 0.05): 1116.81 ± 1.9 kg/m3
- mass density ([2]; 293.15 K, x1 = 0.0996): 1109.94 ± 1.8 kg/m3
- mass density ([2]; 293.15 K, x1 = 0.1997): 1095.15 ± 1.8 kg/m3
- mass density ([2]; 293.15 K, x1 = 0.3): 1079.09 ± 1.8 kg/m3
- mass density ([2]; 293.15 K, x1 = 0.4012): 1061.43 ± 1.7 kg/m3
- mass density ([2]; 293.15 K, x1 = 0.5): 1042.6 ± 1.7 kg/m3
- mass density ([2]; 293.15 K, x1 = 0.6): 1021.64 ± 1.6 kg/m3
- mass density ([2]; 293.15 K, x1 = 0.7): 998.51 ± 1.6 kg/m3
- mass density ([2]; 293.15 K, x1 = 0.8): 973.03 ± 1.5 kg/m3
- mass density ([2]; 293.15 K, x1 = 0.9): 944.82 ± 1.5 kg/m3
- mass density ([2]; 293.15 K, x1 = 0.95): 929.54 ± 1.4 kg/m3
- mass density ([2]; 293.15 K, x1 = 1): 913.31 ± 1.4 kg/m3
- mass density ([2]; 298.15 K, x1 = 0.05): 1113.41 ± 1.9 kg/m3
- mass density ([2]; 298.15 K, x1 = 0.0996): 1106.38 ± 1.9 kg/m3
- mass density ([2]; 298.15 K, x1 = 0.1997): 1091.4 ± 1.9 kg/m3
- mass density ([2]; 298.15 K, x1 = 0.3): 1075.16 ± 1.8 kg/m3
- mass density ([2]; 298.15 K, x1 = 0.4012): 1057.31 ± 1.8 kg/m3
- mass density ([2]; 298.15 K, x1 = 0.5): 1038.25 ± 1.8 kg/m3
- mass density ([2]; 298.15 K, x1 = 0.6): 1017.06 ± 1.7 kg/m3
- mass density ([2]; 298.15 K, x1 = 0.7): 993.75 ± 1.6 kg/m3
- mass density ([2]; 298.15 K, x1 = 0.8): 968.09 ± 1.6 kg/m3
- mass density ([2]; 298.15 K, x1 = 0.9): 939.77 ± 1.5 kg/m3
- mass density ([2]; 298.15 K, x1 = 0.95): 924.43 ± 1.5 kg/m3
- mass density ([2]; 298.15 K, x1 = 1): 908.19 ± 1.5 kg/m3
- mass density ([2]; 303.15 K, x1 = 0.05): 1110.02 ± 2 kg/m3
- mass density ([2]; 303.15 K, x1 = 0.0996): 1102.89 ± 2 kg/m3
- mass density ([2]; 303.15 K, x1 = 0.1997): 1087.69 ± 1.9 kg/m3
- mass density ([2]; 303.15 K, x1 = 0.3): 1071.19 ± 1.9 kg/m3
- mass density ([2]; 303.15 K, x1 = 0.4012): 1053.07 ± 1.9 kg/m3
- mass density ([2]; 303.15 K, x1 = 0.5): 1033.77 ± 1.8 kg/m3
- mass density ([2]; 303.15 K, x1 = 0.6): 1012.39 ± 1.8 kg/m3
- mass density ([2]; 303.15 K, x1 = 0.7): 988.93 ± 1.7 kg/m3
- mass density ([2]; 303.15 K, x1 = 0.8): 963.16 ± 1.6 kg/m3
- mass density ([2]; 303.15 K, x1 = 0.9): 934.7 ± 1.6 kg/m3
- mass density ([2]; 303.15 K, x1 = 0.95): 919.34 ± 1.6 kg/m3
- mass density ([2]; 303.15 K, x1 = 1): 903.11 ± 1.5 kg/m3

Compound: OCCOCCO [diethylene glycol]
- mass density ([3]; 293.15 K): 1116.38 ± 1.7 kg/m3
- mass density ([3]; 298.15 K): 1113.03 ± 1.7 kg/m3
- mass density ([3]; 303.15 K): 1109.47 ± 1.8 kg/m3
- relative permittivity at zero frequency ([4]; 293.15 K): 31.81 ± 0.04
- relative permittivity at zero frequency ([4]; 298.15 K): 30.95 ± 0.04
- relative permittivity at zero frequency ([4]; 303.15 K): 30.03 ± 0.04

Compound: OCCOCCO [diethylene glycol] + CCCOCCO
- relative permittivity at zero frequency ([1]; 293.15 K, x2 = 0): 31.81 ± 0.04
- relative permittivity at zero frequency ([1]; 298.15 K, x2 = 0): 30.95 ± 0.04
- relative permittivity at zero frequency ([1]; 303.15 K, x2 = 0): 30.03 ± 0.04
- mass density ([2]; 293.15 K, x2 = 0): 1116.38 ± 1.7 kg/m3
- mass density ([2]; 298.15 K, x2 = 0): 1113.03 ± 1.7 kg/m3
- mass density ([2]; 303.15 K, x2 = 0): 1109.47 ± 1.8 kg/m3

Compound: OCCOCCOCCO [triethylene glycol]
- mass density ([3]; 293.15 K): 1123.74 ± 1.9 kg/m3
- mass density ([3]; 298.15 K): 1119.66 ± 1.9 kg/m3
- mass density ([3]; 303.15 K): 1115.83 ± 2 kg/m3
- relative permittivity at zero frequency ([4]; 293.15 K): 23.69 ± 0.04
- relative permittivity at zero frequency ([4]; 298.15 K): 23.07 ± 0.04
- relative permittivity at zero frequency ([4]; 303.15 K): 22.43 ± 0.04

Compound: OCCOCCOCCO [triethylene glycol] + CCCOCCO
- relative permittivity at zero frequency ([1]; 293.15 K, x2 = 0): 23.69 ± 0.04
- relative permittivity at zero frequency ([1]; 298.15 K, x2 = 0): 23.07 ± 0.04
- relative permittivity at zero frequency ([1]; 303.15 K, x2 = 0): 22.43 ± 0.04
- mass density ([2]; 293.15 K, x2 = 0): 1123.74 ± 1.9 kg/m3
- mass density ([2]; 298.15 K, x2 = 0): 1119.66 ± 1.9 kg/m3
- mass density ([2]; 303.15 K, x2 = 0): 1115.83 ± 2 kg/m3
